One test has as its target T1, EGFR L858R (Homo sapiens, UniProt P00533, L858R).
T1 construct: purchased SignalChem E10-122BG
As to the kind of experiment: Biochemical EGFR inhibition assay (Caliper mobility shift), EGFR L858R. The following applies: read-out: Enz EGFR L858R IC50. An outline of the steps:
(§1)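 Recombinant mutant enzyme, 2.5 µM fluorescent peptide, ATP at 1.0 mM or Km, 1.0% DMSO, 25 °C. Stopped with EDTA once 10–20% of peptide was phosphorylated; apparent IC50 derived from electrophoretic product/substrate separation.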

The next test deals with T2, EGFR (d746-750) (Homo sapiens, UniProt P00533, DEL746-750).
T2 construct: purchased SignalChem E10-122JG
T2 sequence (P00533 with tags, fused parts or gaps DEL746-750 limits assumed): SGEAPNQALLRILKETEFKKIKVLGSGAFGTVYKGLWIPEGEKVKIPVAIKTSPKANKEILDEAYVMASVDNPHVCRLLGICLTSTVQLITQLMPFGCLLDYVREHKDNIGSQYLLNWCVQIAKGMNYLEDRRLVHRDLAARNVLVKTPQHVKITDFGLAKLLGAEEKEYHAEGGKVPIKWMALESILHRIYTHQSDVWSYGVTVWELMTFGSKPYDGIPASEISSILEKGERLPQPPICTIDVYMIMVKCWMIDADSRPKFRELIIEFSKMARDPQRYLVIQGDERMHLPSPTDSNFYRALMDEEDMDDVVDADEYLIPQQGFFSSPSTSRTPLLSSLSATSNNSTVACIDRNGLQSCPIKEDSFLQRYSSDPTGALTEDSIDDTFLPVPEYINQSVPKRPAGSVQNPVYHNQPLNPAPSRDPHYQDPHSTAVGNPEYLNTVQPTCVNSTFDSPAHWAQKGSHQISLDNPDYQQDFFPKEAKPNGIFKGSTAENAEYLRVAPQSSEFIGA
As to the kind of experiment: Biochemical EGFR inhibition assay (Caliper mobility shift), EGFR (d746-750). The following applies: read-out: Enz EGFR Exon 19-del IC50. The method in brief:
as §1

Test [1] has as its target intracellular phosphorylation of EGFR (Tyr1068) in PC-9 cells (Homo sapiens, UniProt P00533, DEL746-750). As to the kind of experiment: PC-9 pEGFR AlphaLISA assay. The following applies: 4 hours incubation, read-out: Phos EGFR PC9 IC50. The test is classed as cell-based. The method in brief:
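PC-9 cells (EGFR del746-750) in phenol-free DMEM/10% FBS, adhered overnight, then exposed to 10-point 4-fold compound dilutions for 4 h at 37 °C. Lysates assayed for pEGFR Tyr1068 by AlphaLISA SureFire Ultra; IC50 from percent pEGFR inhibition vs log concentration.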

Another test deals with EGFR M+ NSCLC patients. As to conditions: first line (1L), NSCLC harboring del19 and L858R mutations; cited from earlier work.
The mark [2] stands for this setting: biochemical Caliper mobility shift assay, EGFR L858R enzyme.
Where [3] appears, read: biochemical Caliper mobility shift assay, EGFR Exon 19-del enzyme.

Where two headings read alike, the source gives them in different places.

T1 sequence (P00533 25-1210 L858R): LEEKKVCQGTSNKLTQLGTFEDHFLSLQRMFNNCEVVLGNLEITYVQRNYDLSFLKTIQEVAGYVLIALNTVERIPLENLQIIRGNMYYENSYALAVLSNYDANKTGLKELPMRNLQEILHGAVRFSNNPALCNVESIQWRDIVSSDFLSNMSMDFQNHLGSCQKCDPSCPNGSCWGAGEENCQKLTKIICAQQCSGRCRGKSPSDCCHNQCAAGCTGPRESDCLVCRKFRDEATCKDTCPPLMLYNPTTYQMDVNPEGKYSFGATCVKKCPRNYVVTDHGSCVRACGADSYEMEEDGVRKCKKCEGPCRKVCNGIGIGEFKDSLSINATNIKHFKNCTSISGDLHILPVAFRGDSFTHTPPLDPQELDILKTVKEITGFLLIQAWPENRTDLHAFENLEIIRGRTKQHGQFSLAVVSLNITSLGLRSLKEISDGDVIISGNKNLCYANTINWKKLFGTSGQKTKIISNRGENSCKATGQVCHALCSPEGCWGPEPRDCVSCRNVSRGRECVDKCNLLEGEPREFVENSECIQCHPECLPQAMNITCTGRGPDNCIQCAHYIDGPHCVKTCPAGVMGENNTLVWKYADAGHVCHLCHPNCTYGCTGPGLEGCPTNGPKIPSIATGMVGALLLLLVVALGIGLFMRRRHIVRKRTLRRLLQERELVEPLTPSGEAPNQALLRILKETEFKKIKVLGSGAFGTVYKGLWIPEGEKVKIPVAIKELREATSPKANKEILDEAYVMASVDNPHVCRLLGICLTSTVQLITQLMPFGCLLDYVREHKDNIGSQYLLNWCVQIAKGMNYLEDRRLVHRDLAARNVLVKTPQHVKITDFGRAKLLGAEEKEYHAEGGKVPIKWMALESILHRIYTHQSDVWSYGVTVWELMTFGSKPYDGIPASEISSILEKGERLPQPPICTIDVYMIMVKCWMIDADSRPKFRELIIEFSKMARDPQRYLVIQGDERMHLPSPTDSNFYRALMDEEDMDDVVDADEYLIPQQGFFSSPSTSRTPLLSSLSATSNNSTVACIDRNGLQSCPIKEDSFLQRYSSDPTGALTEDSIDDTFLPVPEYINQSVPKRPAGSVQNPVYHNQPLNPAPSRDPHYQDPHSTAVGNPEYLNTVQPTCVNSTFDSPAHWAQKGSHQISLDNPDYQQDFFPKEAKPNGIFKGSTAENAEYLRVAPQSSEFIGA
Chain of intracellular phosphorylation of EGFR (Tyr1068) in PC-9 cells (P00533 with tags, fused parts or gaps DEL746-750): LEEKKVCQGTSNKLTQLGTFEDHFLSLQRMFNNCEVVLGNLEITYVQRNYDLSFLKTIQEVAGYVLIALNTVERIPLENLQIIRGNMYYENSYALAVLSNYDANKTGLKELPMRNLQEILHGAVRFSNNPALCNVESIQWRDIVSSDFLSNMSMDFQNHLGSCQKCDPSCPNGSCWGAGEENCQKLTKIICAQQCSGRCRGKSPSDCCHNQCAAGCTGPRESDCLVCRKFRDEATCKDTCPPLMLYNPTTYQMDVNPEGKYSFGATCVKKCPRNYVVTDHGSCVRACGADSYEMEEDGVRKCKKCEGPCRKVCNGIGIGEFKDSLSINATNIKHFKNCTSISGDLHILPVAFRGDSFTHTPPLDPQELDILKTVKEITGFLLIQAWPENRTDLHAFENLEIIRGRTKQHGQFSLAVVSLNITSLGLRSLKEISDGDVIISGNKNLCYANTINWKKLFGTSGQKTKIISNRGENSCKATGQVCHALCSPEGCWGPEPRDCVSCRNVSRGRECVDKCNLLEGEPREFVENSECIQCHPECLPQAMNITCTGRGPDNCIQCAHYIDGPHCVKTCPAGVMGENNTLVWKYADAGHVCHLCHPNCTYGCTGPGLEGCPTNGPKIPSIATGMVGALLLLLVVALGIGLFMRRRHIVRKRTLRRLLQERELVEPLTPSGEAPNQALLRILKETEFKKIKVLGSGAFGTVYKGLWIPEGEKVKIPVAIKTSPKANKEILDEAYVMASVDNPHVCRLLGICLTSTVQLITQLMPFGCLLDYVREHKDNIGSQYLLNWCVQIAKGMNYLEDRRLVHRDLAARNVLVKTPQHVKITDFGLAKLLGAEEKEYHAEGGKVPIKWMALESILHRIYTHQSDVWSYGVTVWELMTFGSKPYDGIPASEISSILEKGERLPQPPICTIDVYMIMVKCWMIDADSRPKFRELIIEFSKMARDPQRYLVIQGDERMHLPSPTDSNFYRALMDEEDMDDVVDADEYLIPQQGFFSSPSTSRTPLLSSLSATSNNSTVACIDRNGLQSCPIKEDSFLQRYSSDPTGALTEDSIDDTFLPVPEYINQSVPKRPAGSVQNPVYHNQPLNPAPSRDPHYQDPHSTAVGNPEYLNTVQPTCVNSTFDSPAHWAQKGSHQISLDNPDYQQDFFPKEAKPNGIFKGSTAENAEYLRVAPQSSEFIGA

As a reminder, the IC50 is the concentration that gives 50% inhibition. `CN1CCC(Oc2cc(-c3cn(C)n(C(F)F)c3=O)cc3ncnc(Nc4ccc5ncsc5c4)c23)CC1` [Example A17, 4-(4-(benzo[d]thiazol-6-ylamino)-5-((1-methylpiperidin-4-yl)oxy)quinazolin-7-yl)-2-(difluoromethyl)-1-methyl-1,2-dihydro-3H-pyrazol-3-one]: the IC50 on EGFR L858R (setting [2]) was 10.1 to 50 nM; on EGFR (d746-750) (setting [3]), ≤ 10 nM; in test [1], 10.1 to 50 nM.

With `CN1CCC(Oc2cc(-c3cn(C)nc3OC(F)F)cc3ncnc(Nc4ccc5ncsc5c4)c23)CC1` [Example A18, N-(7-(3-(difluoromethoxy)-1-methyl-1H-pyrazol-4-yl)-5-((1-methylpiperidin-4-yl)oxy)quinazolin-4-yl)benzo[d]thiazol-6-amine], the 50% inhibitory concentration (IC50) at EGFR L858R (setting [2]) was 10.1 to 50 nM; at EGFR (d746-750) (setting [3]), ≤ 10 nM; in test [1] it was 10.1 to 50 nM.

Take `COC[C@@H](C)Oc1cc(-n2cc([C@H](C)O)cn2)cc2ncnc(Nc3ccc4ncsc4c3F)c12` [Example A20, (S)-1-(1-(4-((7-fluorobenzo[d]thiazol-6-yl)amino)-5-(((R)-1-methoxypropan-2-yl)oxy)quinazolin-7-yl)-1H-pyrazol-4-yl)ethan-1-ol, OR (R)-1-(1-(4-((7-fluorobenzo[d]thiazol-6-yl)amino)-5-(((R)-1-methoxypropan-2-yl)oxy)quinazolin-7-yl)-1H-pyrazol-4-yl)ethan-1-ol]: the IC50 (on EGFR L858R (setting [2]); on EGFR (d746-750) (setting [3]); in test [1]) was ≤ 10 nM throughout.

With `CN1CCN(CC#Cc2cc(OC3CCOCC3)c3c(Nc4ccc5ncsc5c4F)ncnc3c2)CC1` [Example A24, 7-fluoro-N-(7-(3-(4-methylpiperazin-1-yl)prop-1-yn-1-yl)-5-((tetrahydro-2H-pyran-4-yl)oxy)quinazolin-4-yl)benzo[d]thiazol-6-amine], the IC50 on EGFR L858R (setting [2]) was > 50.1 nM; on EGFR (d746-750) (setting [3]), 10.1 to 50 nM; in test [1] it was 10.1 to 50 nM.

In the case of `CN1CCC[C@H](Oc2cc(C#CCN3CCOCC3)cc3ncnc(Nc4ccc5ncsc5c4)c23)C1` [Example A25, N-(1,3-benzothiazol-6-yl)-5-{[(3S)-1-methylpiperidin-3-yl]oxy}-7-[3-(morpholin-4-yl)prop-1-yn-1-yl]quinazolin-4-amine], the IC50 at EGFR L858R is < 10 nM; at EGFR (d746-750), < 10 nM; in test [1] it was 10.1 to 50 nM.

Regarding `COC[C@@H](C)Oc1cc(-n2cc(C(C)(C)O)cn2)cc2ncnc(Nc3ccc4ncsc4c3F)c12` [Example A26, (R)-2-(1-(4-((7-fluorobenzo[d]thiazol-6-yl)amino)-5-((1-methoxypropan-2-yl)oxy)quinazolin-7-yl)-1H-pyrazol-4-yl)propan-2-ol], the IC50 (at EGFR L858R (setting [2]); on EGFR (d746-750) (setting [3]); in test [1]) was ≤ 10 nM each time.

With `Cn1ccc(-c2cc3ncnc(Nc4ccc5ncsc5c4)c3cc2NC(=O)CCN2CCCCC2)n1` [Example A47, N-(4-(benzo[d]thiazol-6-ylamino)-7-(1-methyl-1H-pyrazol-3-yl)quinazolin-6-yl)-3-(piperidin-1-yl)propanamide], the IC50 (on EGFR L858R (setting [2]); on EGFR (d746-750) (setting [3]); in test [1]) was ≤ 10 nM throughout.

As for `C[C@@H](Oc1cc(-c2cnn(C)c2)cc2ncnc(Nc3ccc4ncsc4c3)c12)C(CO)CO` [Example A56, (R)-2-(1-((4-(benzo[d]thiazol-6-ylamino)-7-(1-methyl-1H-pyrazol-4-yl)quinazolin-5-yl)oxy)ethyl)propane-1,3-diol], the concentration for half-maximal inhibition (IC50) (on EGFR L858R (setting [2]); on EGFR (d746-750) (setting [3]); in test [1]) was ≤ 10 nM throughout.

In the case of `OC(Cn1cc(-c2cc(OC3CCOCC3)c3c(Nc4ccc5ncsc5c4)ncnc3c2)cn1)C(F)(F)F` (stereo not shown) [Example A57, 3-(4-(4-(benzo[d]thiazol-6-ylamino)-5-((tetrahydro-2H-pyran-4-yl)oxy)quinazolin-7-yl)-1H-pyrazol-1-yl)-1,1,1-trifluoropropan-2-ol], the IC50 is ≤ 10 nM on EGFR L858R (setting [2]), ≤ 10 nM at EGFR (d746-750) (setting [3]) and 10.1 to 50 nM in test [1].

For the compound `Cn1cc(-c2cc(OC3COCOC3)c3c(Nc4ccc5ncsc5c4)ncnc3c2)cn1` [Example A59, N-(5-((1,3-dioxan-5-yl)oxy)-7-(1-methyl-1H-pyrazol-4-yl)quinazolin-4-yl)benzo[d]thiazol-6-amine], the IC50 at EGFR L858R (setting [2]) was ≤ 10 nM; on EGFR (d746-750) (setting [3]) it was ≤ 10 nM; in test [1] it was 10.1 to 50 nM.

Turning to `CN(C)CCOc1cc(-c2cnn(C)c2)cc2ncnc(Nc3ccc4ncsc4c3)c12` [Example A60, N-(5-(2-(dimethylamino)ethoxy)-7-(1-methyl-1H-pyrazol-4-yl)quinazolin-4-yl)benzo[d]thiazol-6-amine], the IC50 on EGFR L858R (setting [2]) is 10.1 to 50 nM; on EGFR (d746-750) (setting [3]) it was ≤ 10 nM; in test [1], 10.1 to 50 nM.

For `C=CC(=O)Nc1cc(Nc2nccc(-c3cn(C)c4ccccc34)n2)c(OC)cc1N(C)CCN(C)C` [Osimertinib], the “progression-free survival (PFS)” value in the test with EGFR M+ NSCLC patients is listed as 18.9 mo.

Values taken from patent US20260207602A1, “EGFR INHIBITORS” (Blueprint Medicines Corporation, priority 2022, published 2026).
